Reference: patent US8529874B2, “Peptide imaging agents” (GE Healthcare AS, priority 2007, dated 2013)
Bridge positions count the residues as written; N and C are the ends.

Legend:
[1] = molecular target: T1, mouse c-Met/Fc chimera (Mus musculus, UniProt P16056); experiment: In vitro fluorescence polarisation assay, binding to mouse c-Met; details: dye-labelled peptide 20 nM, c-Met/Fc 0-150 nM (tested range)
T1 construct: purchased R&D Systems
Description: The principle of the fluorescence polarisation method can briefly be described as follows:
Monochromatic light passes through a horizontal polarizing filter and excites fluorescent molecules in the sample. Only those molecules that oriented properly in the vertically polarized plane adsorb light, become excited, and subsequently emit light. The emitted light is measured in both horizontal and vertical planes. The anistropy value (A), is the ratio between the light intensities following the equation
The fluorescence anistropy measurements were performed in 384-well microplates in a volume of 10 μL in binding buffer (PBS, 0.01% Tween-20, pH 7.5) using a Tecan Safire fluorescence polarisation plate reader (Tecan, US) at ex646/em678 nm. The concentration of dye-labelled peptide was held constant (20 nM) and the concentrations of the human or mouse c-Met/Fc chimera (R&D Systems) or Semaphorin 6A (R&D Systems) were varied from 0-150 nM. Binding mixtures were equilibrated in the microplate for 10 min at 30° C. The observed change in anistropy was fit to the equation
[formula] where robs is the observed anistropy, rfree is the anistropy of the free peptide, rbound is the anistropy of the bound peptide, KD is the dissociation constant, cMet is the total c-Met concentration, and P is the total dye-labelled peptide concentration. […]

[2] = system: HCT-15 tumours; experiment: In vivo optical imaging of HCT-15 tumour slice against normal colon; parameters: species or system BALB c/A nude (Bom) mice
Description: 54 Female BALB c/A nude (Bom) mice were used in the study. The use of the animals was approved by the local ethics committee. BALB c/A nude is an inbred immunocompromised mouse strain with a high take rate for human tumours as compared to other nude mice strains. The mice were 4 weeks old upon arrival and with a body weight of approx. 20 grams at the start of the study. The animals were housed in individually ventilated cages (IVC, Scanbur BK) with HEPA filtered air. The animals had ad libitum access to “Rat and Mouse nr. 3 Breeding” diet (Scanbur BK) and tap water acidified by addition of HCl to a molar concentration of 1 mM (pH 3.0).
The colon cancer cell HCT-15 is derived from human colon carcinomas and is reported to express c-Met according to Zeng et al [Clin. Exp. Metastasis, 21, 409-417. (2004)]. The cell line was proven to be tumorigenic when inoculated subcutaneously into nude mice [Flatmark et al, Eur. J. Cancer 40, 1593-1598 (2004)].
HCT-15 cells were grown and prepared for subcutaneous inoculation in RPMI (Sigma Cat# R0883) with 10% serum and penicillin/streptomycin. Stocks were made at passage number four (P4) and frozen down for storage in liquid nitrogen at 3×10^7 cells/vial in the culture media containing 5% DMSO. On the day of the transplantation, the cells were thawed quickly in a 37° C. water bath (approx. 2 min), washed and resuspended in PBS/2% serum (centrifugation at 1200 rpm for 10 min). Thorough mixing of cells in the vials was ensured every time cells were aspirated into the dosing syringe. Volumes of 0.1 ml of cell suspension were injected s.c. at the shoulder and at the back using a fine bore needle (25 G) while the animals were under light gas anaesthesia. The animals were then returned to their cages and the tumours were allowed to grow for 13-17 days. […]
Imaging was performed through a clinical laparoscope adapted to use a light source to excite the reporter and a filtering system to extract the fluorescence component. […] The images were visually scored using the standard scoring system employed for receiver operating characteristic analysis.

T1 sequence (P16056 with tags, fused parts or gaps limits assumed): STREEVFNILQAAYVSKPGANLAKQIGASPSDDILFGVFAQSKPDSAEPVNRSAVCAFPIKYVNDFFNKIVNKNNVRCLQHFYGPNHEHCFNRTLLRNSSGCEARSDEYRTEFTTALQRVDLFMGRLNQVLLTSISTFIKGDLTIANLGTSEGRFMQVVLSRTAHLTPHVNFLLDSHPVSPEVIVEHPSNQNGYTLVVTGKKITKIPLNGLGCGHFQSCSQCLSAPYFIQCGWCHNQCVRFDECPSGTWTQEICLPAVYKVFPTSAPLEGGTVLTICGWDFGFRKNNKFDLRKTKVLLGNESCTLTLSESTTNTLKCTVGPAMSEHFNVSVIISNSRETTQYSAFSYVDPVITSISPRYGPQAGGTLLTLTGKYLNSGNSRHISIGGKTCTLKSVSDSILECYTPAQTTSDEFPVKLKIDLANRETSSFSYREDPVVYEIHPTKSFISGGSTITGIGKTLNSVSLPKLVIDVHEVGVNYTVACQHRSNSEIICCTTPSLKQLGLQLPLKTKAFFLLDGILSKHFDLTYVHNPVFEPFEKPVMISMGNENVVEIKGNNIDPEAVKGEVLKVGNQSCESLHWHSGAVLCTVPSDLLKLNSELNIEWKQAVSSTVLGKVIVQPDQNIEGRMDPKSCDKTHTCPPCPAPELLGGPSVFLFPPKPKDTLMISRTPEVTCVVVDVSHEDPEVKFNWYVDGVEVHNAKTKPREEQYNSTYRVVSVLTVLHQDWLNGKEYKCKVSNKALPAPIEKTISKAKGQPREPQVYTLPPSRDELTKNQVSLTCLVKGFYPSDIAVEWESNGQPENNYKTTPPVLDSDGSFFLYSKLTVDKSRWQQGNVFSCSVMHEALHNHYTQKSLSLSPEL

## Ac-Ala-Gly-Ser-Cys-Tyr-Cys-Ser-Gly-Pro-Pro-Arg-Phe-Glu-Cys-Trp-Cys-Tyr-Glu-Thr-Glu-Gly-Thr-Gly-Gly-Gly-Lys(Cy5)-NH2 (Ac-AGSCYCSGPPRFECWCYETEGTGGGK(Cy5)-NH2; also: two disulfides, pairing not given here) [Compound 3]
[1]
  binding to mouse c-Met (in words): no binding

## Ac-TGECTCPYWEFRPCECGSYSGAGGGK(ε-Cy5**)-NH2 (Ac-TGECTCPYWEFRPCECGSYSGAGGGK-NH2; disulfide 6-14; disulfide 4-16 (inferred); not fully specified (residue 26); printed as Ac-TGECTCPYWEFRPCECGSYSGAGGGK(ε-Cy5**)-NH2) [Compound 7, negative control; scrambled control peptide with the same dye as Compound 5]
[2]; 1 nmol per animal i.v., HCT-15 tumour slice vs normal colon
  visual identification of tumour against background: nothing was discernible against background
[2]; 1 nmol per animal i.v., HCT-15 tumour slice vs normal colon, ex vivo, 635 nm excitation
  tumour to normal ratio: 1.04
[2]; animal model of cancer, Example 7
  tumour: background ratios (summary in words): did not discriminate between tumour and background
